Assay results from the METLIN SMRT retention time set (Domingo-Almenara et al. 2019).

Experiment: gradient 5% acetonitrile 3 min, to 50% in 2 min, to 85% in 15 min, held 3 min, 100 µL/min
Conditions: column: Zorbax Extend-C18 2.1 x 50 mm; eluents: water / acetonitrile, 0.1% formic acid
In short: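 Over 3 months, pure standards in mixtures of ~100 molecules were run by HPLC coupled to a quadrupole time-of-flight mass spectrometer in positive and negative ionization mode. The column was a Zorbax Extend-C18 (2.1 × 50 mm, 1.8 μm) at 100 μL/min, eluted with water and acetonitrile each holding 0.1% formic acid, with 40 μL dead and 900 μL dwell volumes. Retention time was determined from adduct peaks chosen by software and checked manually.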

| Compound | RP-LC retention time [s] |
| --- | --- |
| CC(C(=O)NCCCN1CCCCC1)n1ccc2cc(S(=O)(=O)N3CCCCCC3)ccc21 (configuration not stated) | 707 |
| O=C(Nc1cc(-c2cccs2)no1)C1CC1 | 803 |
| Cn1cc(-c2ccc(Cl)cc2)cc1C(=O)NCc1ccco1 | 1020 |
| COCCNS(=O)(=O)c1cc(-c2cc(C(F)(F)F)on2)sc1C | 982 |
| COc1ccc(N2CCN(C(=O)CCC(=O)N3CCCn4nc(C)cc43)CC2)cc1 | 606 |
| O=C(NCCc1ccccc1)c1ccc2c(c1)CCN2C(=O)C1CC1 | 814 |
| Cc1ccc2c(c1)N(C(=O)Cn1c(=O)cc(C(=O)N3CCCCC3)c3ccccc31)CCO2 | 1010 |
| CCOc1ccc(NC(=O)Cn2cccc2-c2nnc(C3CCC3)o2)cc1 | 912 |
| O=C(Cc1ccsc1)Nc1cnc(N2CCOCC2)nc1 | 686 |
| CC(=O)N1CCC2(CC1)Oc1ccccc1C1CC(c3ccc4c(c3)OCO4)=NN12 (configuration not stated) | 783 |
| CN(C)c1cccc(C(=O)N2CCC3(C2)C(=O)N(C)c2ccccc23)c1 (configuration not stated) | 710 |
| CC1CCCN(CCCNC(=O)c2nc3nc(-c4ccco4)cc(C(F)(F)F)n3n2)C1 (configuration not stated) | 641 |
| COc1ccc2c(c1)CCc1sc(NC(=O)c3ccc(Cl)cc3)nc1-2 | 1160 |
| O=C(c1nnc(-c2ccc(S(=O)(=O)N3CCCC3)cc2)o1)N1CCCCCC1 | 902 |
| Cc1ccc(-c2nc(-c3ccnc(N4CCOCC4)c3)no2)cc1F | 1100 |
| Cc1cccc(N2C(=O)CN(S(C)(=O)=O)CC2(C)C(=O)NC2CCCCCCC2)c1C (configuration not stated) | 951 |
| CCOC(=O)c1noc2ncnc(NCCCN3CCN(c4cccc(C)c4)C(C)C3)c12 (configuration not stated) | 619 |
| Cc1cc(C)cc(NS(=O)(=O)c2cc(-c3[nH]ncc3C(=O)N3CCCCC3)oc2C)c1 | 807 |
| CCOC(=O)CNC(=O)N1CCC(N2CCN(Cc3cccc(C)c3)C2=O)CC1 | 725 |
| O=C(Cn1nc2c3ccccc3ncn2c1=O)Nc1cccc(C(F)(F)F)c1 | 733 |
| COc1cccc(-c2noc(Cc3nnc(-c4ccc(F)cc4)o3)n2)c1OC | 943 |
| CCCc1nc2ccc(CCC(=O)Nc3ccc(OC)c(OC)c3)cc2[nH]1 | 610 |
| COc1ccc(-c2cc3nn(CC(=O)Nc4ccc(F)cc4Cl)c(=O)n3c(C)n2)cc1 | 970 |

| Compound | RP-LC retention time [s] |
| --- | --- |
| Cc1ccc(C)c(N2CCN(S(=O)(=O)c3ccc(-c4c(C)noc4C)cc3)CC2)c1 | 1250 |
| CC(C)N1C(=O)C(C)(C(=O)Nc2ccc(F)cc2)Oc2cccnc21 (configuration not stated) | 986 |
| CCOc1ccc(CCNC(=O)c2sc(-c3cccn3CC)nc2C)cc1OCC | 1140 |
| O=C(Cn1c(=O)c2cccn2c2ccc(F)cc21)NCCN1CCOCC1 | 592 |
| COc1cc(-c2noc(CN3C(=O)COc4cc(Cl)ccc43)n2)cc(OC)c1OC | 1020 |
| COC(=O)c1c(C)c(C(=O)C(C)N(Cc2ccc(F)cc2)C(=O)C2CCC2)c(C)n1C (configuration not stated) | 1040 |
| Cc1[nH]c(-c2ccc(Cl)cc2)cc1C(=O)N1CCC(C)CC1 | 1010 |
| CN(c1nccn2c(=O)n(CC(=O)Nc3ccccc3F)nc12)C1CCCCC1 | 748 |
| CCc1ccc(CNC(=O)c2cn(CC)nc2S(=O)(=O)N2CCC(C)CC2)cc1 | 1180 |
| CCc1ccc(OCc2nc(CCN(C)C(=O)Nc3cc(OC)ccc3OC)no2)cc1 | 1060 |
| Cc1ccc(Nc2c(-c3cc(Br)ccc3O)nc3ncccn23)cc1 | 1050 |
| Cc1ccc(CNC(=O)N2CCc3c(c(-c4nc(C5CC5)no4)nn3C)C2)cc1 | 828 |
| CS(=O)(=O)NCC1CCC(C(=O)NCCCn2ccnc2)CC1 (configuration not stated) | 570 |
| CN1C(=O)CCc2cc(C(=O)NC3CC3)ccc21 | 626 |
| COc1ccc(Cl)c2c(=O)c3c([nH]c12)CCN(CC(=O)Nc1cc(F)ccc1F)C3 | 625 |
| CC(Oc1ccccc1F)C(=O)NCCn1nc(-n2cccn2)ccc1=O (configuration not stated) | 660 |
| Cc1noc(-c2cccc(OC3CN(C(=O)Cc4ccccc4)C3)c2)n1 | 854 |
| COc1cc(C(=O)NC(C)C(=O)Nc2nc3ccccc3[nH]2)cc(OC)c1OC (configuration not stated) | 767 |
| O=C(c1ccccc1F)N1CCCCC1c1nncn1CC1CC1 (configuration not stated) | 698 |
| CCOc1ccccc1-c1noc(Cn2c(=O)n(C(C)C)c(=O)c3ccccc32)n1 | 1090 |
| COCCn1c(SCc2ccccc2Cl)nc2cc(C(=O)NC(C)C)ccc2c1=O | 1010 |
| COc1ccc(NC(=O)c2sc(-c3cn(C)c4ncccc34)nc2C)c(C)c1 | 881 |
| CCCC(=O)Nc1ccc2c(c1)CN(C(=O)c1ccc(F)c(Cl)c1)C(C(=O)N(C)C)C2 (configuration not stated) | 727 |

| Compound | RP-LC retention time [s] |
| --- | --- |
| Cc1ccc(CNC(=O)c2ncn3c2C(=O)N(C2CC2)C(C)(C(=O)NCc2ccc(F)cc2)C3)cc1 (configuration not stated) | 799 |
| CCSc1nnc(NC(=O)CSc2nn3c(=O)c(C)nnc3s2)s1 | 640 |
| COc1cccc(C(=O)N(CN2CCCC2=O)c2cccc(C(F)(F)F)c2)c1 | 757 |
| O=C(NCCc1noc(C2CC2)n1)c1cccs1 | 700 |
| CCN1CCN(c2cc(C(=O)O)c3cc(NS(=O)(=O)c4cc(C)ccc4C)ccc3n2)CC1 | 610 |
| Cc1ccnc(NC(=O)c2ccc(Cn3cncn3)cc2)c1 | 593 |
| Cc1cc(C)cc(NC(=O)N2CCC(OC3CCN(S(C)(=O)=O)CC3)CC2)c1 | 718 |
| Cc1ccc(N2CCN(Cc3nc4nc(C)cc(N5CCCC5)n4n3)CC2)cc1 | 639 |
| Cc1nnsc1C(=O)N1CCc2nc(NC(=O)c3ccco3)sc2C1 | 636 |
| O=C(NCc1ccccc1F)c1c(O)c2cccnc2n(Cc2ccccc2)c1=O | 1360 |
| CN(C)c1ccc(CNc2ccc(-c3nc(-c4cccc(F)c4)no3)cn2)cc1 | 912 |
| O=C(CCCS(=O)(=O)Cc1ccccc1)NCc1ccccc1 | 694 |
| Cc1c(Cl)cccc1NC(=O)Cn1nc(C(=O)N2CCCCC2)c2ccccc21 | 917 |
| CC(C)C(=O)Nc1ccc(-n2cnc(C(=O)N3CCN(C4CCCCC4)CC3)c2)nc1 | 601 |
| CCOc1ccc(NC(=O)N(C)CC2CCOCC2)cc1 | 719 |
| CSc1nnc(NC(=O)CN(C)S(C)(=O)=O)s1 | 603 |
| COc1ccc(CNC(=O)c2cc3c(-c4cccs4)nn(-c4ccccc4)c3n2C)cc1 | 1120 |
| Cc1ccc(CNC(=O)c2cccc(C3CCCN(C(=O)NC(C)C)C3)c2)o1 (configuration not stated) | 833 |
| COc1ccccc1N1CCN(CCNC(=O)C(=O)NC2CCCCC2)CC1 | 599 |
| CSc1ncccc1C(=O)N1CCCn2nc(-c3ccncc3)cc2C1 | 586 |
| Cc1ccc(NC(=O)C2CCCN(c3ncnc4c3nc3n4CCCCC3)C2)c(Cl)c1 (configuration not stated) | 855 |
